Here are results for 18 molecules from patent publication US12371428B2 (Exelixis, Inc., priority 2019, dated 2025).

Assay [1] addresses Human KDR (residues 790-1356) (Homo sapiens (Human), UniProt P35968). The assay can be described thus: Human KDR kinase assay, HTRF KinEase (Example B-2). The format is biochemical. The procedure, abridged:
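Ten compound concentrations (3% DMSO final) were pre-plated, then KDR (790-1356) with biotinylated peptide in Mg/Mn/DTT buffer was added; ATP at Km (4.0 μM) started a 40 min room-temperature reaction. Detection used Eu-TK antibody and SA-XL665 in EDTA buffer; activity normalized to DMSO and reference inhibitor, IC50 by logistic fit.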

The target in assay [2] is Human MER (residues 528-999) (Homo sapiens (Human), UniProt Q12866). Briefly: Human Mer kinase assay, HTRF KinEase (Example C-2). In kind it is biochemical. The procedure, abridged: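 HTRF KinEase TK assay with MER 528-999 (1 ng/well) in enzymatic buffer plus 5 mM MgCl2 and 1 mM DTT, biotinylated peptide substrate and ATP at Km (40 μM), 3% DMSO final, 60 min at room temperature. Stopped with EDTA detection mix (SA-XL665, TK antibody-Eu3+), read at 665/620 nm after 60 min; IC50 from 10-point 4-parameter fit, normalized to DMSO and 1 μM reference.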
Human MER (residues 528-999), sequence (Q12866 528-999): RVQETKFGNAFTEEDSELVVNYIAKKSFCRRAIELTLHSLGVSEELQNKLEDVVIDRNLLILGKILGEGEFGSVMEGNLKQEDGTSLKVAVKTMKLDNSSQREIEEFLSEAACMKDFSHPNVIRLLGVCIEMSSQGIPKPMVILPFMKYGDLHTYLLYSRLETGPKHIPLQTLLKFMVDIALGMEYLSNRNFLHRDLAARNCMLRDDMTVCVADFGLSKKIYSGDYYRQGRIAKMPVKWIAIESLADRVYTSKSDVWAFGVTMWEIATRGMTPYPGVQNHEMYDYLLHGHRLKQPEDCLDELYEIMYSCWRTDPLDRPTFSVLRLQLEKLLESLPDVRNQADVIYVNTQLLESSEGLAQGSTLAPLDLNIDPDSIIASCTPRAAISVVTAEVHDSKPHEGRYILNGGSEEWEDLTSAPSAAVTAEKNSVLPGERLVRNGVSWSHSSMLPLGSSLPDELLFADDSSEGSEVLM

Assay [3] concerns the target Human MET (residues 956-1390) (Homo sapiens (Human), UniProt P08581). The assay can be described thus: Human Met kinase assay, HTRF KinEase (Example D-2). As to conditions: read-out: c-Met IC50. In kind it is biochemical. The procedure, abridged:
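HTRF KinEase assay on MET residues 956-1390 (0.1 ng/well) in buffer with 5 mM MgCl2, 1 mM DTT and 1 mM MnCl2, with biotinylated peptide substrate, ATP at Km, 10 compound concentrations and 3% DMSO final, run 40 min at room temperature. The […] signal was normalized to DMSO and to 1 μM reference compound, and IC50 came from a 4-parameter logistic fit.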
For orientation: TR-FRET usually uses a lanthanide donor and a delayed reading to cut background.

In assay [4] the target is Mer (phospho-Mer, MERTK-transfected 293A cells) (Homo sapiens (Human), UniProt Q12866). Briefly: Mer autophosphorylation ELISA in transient transfected 293A cells (Example H). As to conditions: cellular activity; Mer autophosphorylation ELISA in transient transfected 293A cells. In kind it is cell-based. The procedure, abridged: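 MERTK-transfected 293A; 8-pt dose, 1 h, serum-free, 0.3% DMSO. Cold lysis with orthovanadate and protease/phosphatase inhibitors. Phospho-Mer by DuoSet IC ELISA vs phospho-Mer standard. IC50: 4-PL fit; DMSO = 100%, reference inhibitor = 0%.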
Mer (phospho-Mer, MERTK-transfected 293A cells), sequence (Q12866 21-999): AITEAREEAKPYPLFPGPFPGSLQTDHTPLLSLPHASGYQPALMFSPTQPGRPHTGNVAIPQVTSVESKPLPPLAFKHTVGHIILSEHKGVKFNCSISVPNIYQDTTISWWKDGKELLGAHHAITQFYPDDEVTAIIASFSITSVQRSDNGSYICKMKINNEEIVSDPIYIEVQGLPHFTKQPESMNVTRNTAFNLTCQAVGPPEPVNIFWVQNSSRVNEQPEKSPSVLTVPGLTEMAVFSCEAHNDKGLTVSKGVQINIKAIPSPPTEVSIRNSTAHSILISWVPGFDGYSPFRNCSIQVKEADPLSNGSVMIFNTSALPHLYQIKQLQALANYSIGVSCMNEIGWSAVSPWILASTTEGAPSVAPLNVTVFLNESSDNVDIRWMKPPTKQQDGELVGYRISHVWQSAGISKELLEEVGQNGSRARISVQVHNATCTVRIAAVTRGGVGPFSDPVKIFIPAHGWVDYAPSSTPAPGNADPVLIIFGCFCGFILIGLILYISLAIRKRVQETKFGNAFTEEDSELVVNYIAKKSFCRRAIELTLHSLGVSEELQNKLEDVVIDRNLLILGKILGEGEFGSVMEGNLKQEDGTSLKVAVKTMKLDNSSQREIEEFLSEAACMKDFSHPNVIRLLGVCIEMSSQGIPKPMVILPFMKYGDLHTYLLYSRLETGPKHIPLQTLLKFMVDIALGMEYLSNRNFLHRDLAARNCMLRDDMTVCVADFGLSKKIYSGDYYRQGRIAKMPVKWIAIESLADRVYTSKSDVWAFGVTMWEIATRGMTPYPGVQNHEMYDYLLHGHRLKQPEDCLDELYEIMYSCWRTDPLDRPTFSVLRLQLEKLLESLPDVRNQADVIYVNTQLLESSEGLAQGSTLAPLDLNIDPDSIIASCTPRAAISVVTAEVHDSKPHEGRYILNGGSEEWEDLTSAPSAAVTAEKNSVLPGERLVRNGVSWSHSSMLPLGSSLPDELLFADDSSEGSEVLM
In general terms: An ELISA detects its analyte on a solid surface through an enzyme-linked reagent.

The mark [5] stands for this setting: protocol of Example B-2 (other compounds).
The mark [6] stands for this setting: protocol of Example C-2 (other compounds).
[7] abbreviates: protocol of Example D-2 (other compounds).

SMILES strings stand for the structures. Structures can show the parent of a compound that is named as a salt. Where two headings read alike, the source gives them in different places. A value given as a limit tells only on which side of the number the result lay.

Human KDR (residues 790-1356), sequence (P35968 790-1356): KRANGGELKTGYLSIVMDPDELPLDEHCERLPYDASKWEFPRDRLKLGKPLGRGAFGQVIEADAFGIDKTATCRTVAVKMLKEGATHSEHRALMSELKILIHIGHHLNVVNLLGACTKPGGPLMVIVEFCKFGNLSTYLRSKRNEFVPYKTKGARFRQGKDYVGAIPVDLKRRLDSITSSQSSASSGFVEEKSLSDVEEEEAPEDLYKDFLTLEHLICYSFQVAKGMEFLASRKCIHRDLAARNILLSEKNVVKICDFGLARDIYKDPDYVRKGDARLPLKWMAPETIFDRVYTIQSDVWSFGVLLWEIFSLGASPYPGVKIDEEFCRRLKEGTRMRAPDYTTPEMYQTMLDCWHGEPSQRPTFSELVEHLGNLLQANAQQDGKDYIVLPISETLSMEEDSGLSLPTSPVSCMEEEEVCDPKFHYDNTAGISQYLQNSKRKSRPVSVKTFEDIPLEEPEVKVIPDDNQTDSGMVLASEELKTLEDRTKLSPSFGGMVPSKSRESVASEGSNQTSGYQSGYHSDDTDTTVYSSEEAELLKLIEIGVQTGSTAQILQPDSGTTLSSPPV
Human MET (residues 956-1390), sequence (P08581 956-1390): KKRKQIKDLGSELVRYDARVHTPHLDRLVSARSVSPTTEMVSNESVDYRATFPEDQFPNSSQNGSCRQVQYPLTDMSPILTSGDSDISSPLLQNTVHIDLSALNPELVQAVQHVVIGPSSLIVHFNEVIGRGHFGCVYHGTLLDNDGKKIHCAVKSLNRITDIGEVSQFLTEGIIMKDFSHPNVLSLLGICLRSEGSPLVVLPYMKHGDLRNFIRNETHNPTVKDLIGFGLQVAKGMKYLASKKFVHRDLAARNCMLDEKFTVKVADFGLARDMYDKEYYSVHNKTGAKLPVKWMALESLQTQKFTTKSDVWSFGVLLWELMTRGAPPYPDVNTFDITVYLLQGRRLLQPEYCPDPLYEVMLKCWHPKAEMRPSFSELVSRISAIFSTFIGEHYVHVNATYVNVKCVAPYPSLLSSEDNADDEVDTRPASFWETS

Regarding `COc1cc2nccc(Oc3ccc(NC(=O)c4cnc(C)c(-c5ccc(F)cc5)c4O)cc3)c2nc1OC` [Compound 119, N-[4-[(6,7-Dimethoxy-1,5-naphthyridin-4-yl)oxy]phenyl]-5-(4-fluorophenyl)-4-hydroxy-6-methylpyridine-3-carboxamide], the half-inhibitory concentration (IC50) in assay [1] (setting [5]), in assay [2] (setting [6]), in assay [3] (setting [7]) and in assay [4] was < 100 nM each time.
For `Cc1cc(F)ccc1-c1c(C)ncc(C(=O)Nc2ccc(Oc3ccnc4cc(C(C)C)cnc34)c(F)c2)c1O` [Compound 593, 5-(4-Fluoro-2-methylphenyl)-N-[3-fluoro-4-[(7-propan-2-yl-1,5-naphthyridin-4-yl)oxy]phenyl]-4-hydroxy-6-methylpyridine-3-carboxamide], the IC50 (usually the concentration that inhibits the measured activity by half) in assay [1] (protocol of Example B-2) is > 300 nM; in assay [2] (protocol of Example C-2) it was 100 to 300 nM; in assay [3] (protocol of Example D-2) it was 100 to 300 nM; in assay [4], < 100 nM.
Turning to `COc1cc2nccc(Oc3ccc(NC(=O)c4cnc(C)c(-c5ccc(F)cc5)c4O)cc3F)c2nc1Br` [Compound 142, N-[4-[(6-Bromo-7-methoxy-1,5-naphthyridin-4-yl)oxy]-3-fluorophenyl]-5-(4-fluorophenyl)-4-hydroxy-6-methylpyridine-3-carboxamide], the IC50 in assay [1] (setting [5]), in assay [2] (setting [6]), in assay [3] (setting [7]) and in assay [4] was < 100 nM in each case.
With `COc1cnc2c(Oc3ccc(NC(=O)c4cn(C(C)C)c(C)c(-c5ccc(F)cc5)c4=O)cc3)ccnc2c1` [Compound 148, 5-(4-Fluorophenyl)-N-[4-[(7-methoxy-1,5-naphthyridin-4-yl)oxy]phenyl]-6-methyl-4-oxo-1-propan-2-ylpyridine-3-carboxamide], the IC50 in assay [1] (setting [5]) was > 300 nM; in assay [2] (setting [6]) it was < 100 nM; in assay [3] (setting [7]), < 100 nM; in assay [4], < 100 nM.
As for `Cc1nc2c(Oc3ccc(NC(=O)c4cn(C(C)C)c(C)c(-c5ccc(F)cc5)c4=O)cc3F)ccnc2cc1-c1cccnc1` [Compound 620, N-[3-Fluoro-4-[(6-methyl-7-pyridin-3-yl-1,5-naphthyridin-4-yl)oxy]phenyl]-5-(4-fluorophenyl)-6-methyl-4-oxo-1-propan-2-ylpyridine-3-carboxamide], the IC50 was > 300 nM in assay [1] (protocol of Example B-2), < 100 nM in assay [2] (protocol of Example C-2), < 100 nM in assay [3] (protocol of Example D-2) and < 100 nM in assay [4].
With `COc1nc2c(Oc3ccc(NC(=O)c4cn(C(C)C)c(C)c(-c5ccc(F)cc5)c4=O)cc3F)ccnc2cc1Br` [Compound 132, N-[4-[(7-Bromo-6-methoxy-1,5-naphthyridin-4-yl)oxy]-3-fluorophenyl]-5-(4-fluorophenyl)-6-methyl-4-oxo-1-propan-2-ylpyridine-3-carboxamide], the IC50 was 100 to 300 nM in assay [1] (setting [5]), < 100 nM in assay [2] (setting [6]), < 100 nM in assay [3] (setting [7]) and < 100 nM in assay [4].
On to `COc1cc2nccc(Oc3ccc(NC(=O)c4cn(OC)cc(-c5ccc(F)cc5)c4=O)cc3F)c2nc1OC` [Compound 126, N-[4-[(6,7-Dimethoxy-1,5-naphthyridin-4-yl)oxy]-3-fluorophenyl]-5-(4-fluorophenyl)-1-methoxy-4-oxopyridine-3-carboxamide], for which the IC50 in assay [1] (setting [5]), in assay [2] (setting [6]), in assay [3] (setting [7]) and in assay [4] was < 100 nM each time.
As to `COc1cc2nccc(Oc3ccc(NC(=O)c4cn(-c5cnn(C)c5)c(C)c(-c5ccc(F)cc5)c4=O)cc3F)c2nc1OC` [Compound 140, N-[4-[(6,7-Dimethoxy-1,5-naphthyridin-4-yl)oxy]-3-fluorophenyl]-5-(4-fluorophenyl)-6-methyl-1-(1-methylpyrazol-4-yl)-4-oxopyridine-3-carboxamide], the IC50 in assay [1] (setting [5]) is > 300 nM; in assay [2] (setting [6]) it was < 100 nM; in assay [3] (setting [7]), < 100 nM; in assay [4] it was < 100 nM.
For the molecule `Cc1ncc(C(=O)Nc2ccc(Oc3ccnc4cnccc34)cc2)c(O)c1-c1ccc(F)cc1` [Compound 643, 5-(4-fluorophenyl)-4-hydroxy-6-methyl-N-[4-(1,7-naphthyridin-4-yloxy)phenyl]pyridine-3-carboxamide], the IC50 in assay [1] (protocol of Example B-2), in assay [2] (protocol of Example C-2), in assay [3] (protocol of Example D-2) and in assay [4] was < 100 nM throughout.
Regarding `COc1cc2nccc(Oc3ccc(NC(=O)c4cnc(N)n(-c5ccc(F)cc5)c4=O)cc3F)c2nc1OC` [Compound 565, 2-Amino-N-[4-[(6,7-dimethoxy-1,5-naphthyridin-4-yl)oxy]-3-fluorophenyl]-1-(4-fluorophenyl)-6-oxopyrimidine-5-carboxamide], the IC50 in assay [1] (protocol of Example B-2), in assay [2] (protocol of Example C-2), in assay [3] (protocol of Example D-2) and in assay [4] was < 100 nM each time.
With `COC(=O)c1cnc2c(Oc3ccc(NC(=O)c4cnc(C)c(-c5ccc(F)cc5)c4O)cc3F)ccnc2c1` [Compound 138, Methyl 8-[2-fluoro-4-[[5-(4-fluorophenyl)-4-hydroxy-6-methylpyridine-3-carbonyl]amino]phenoxy]-1,5-naphthyridine-3-carboxylate], the 50% inhibitory concentration (IC50) in assay [1] (setting [5]) is > 300 nM; in assay [2] (setting [6]), 100 to 300 nM; in assay [3] (setting [7]) it was < 100 nM; in assay [4], 100 to 300 nM.
`COc1cnc2c(Oc3ccc(NC(=O)c4cn(C(C)C)c(C)c(-c5ccc(F)cc5)c4=O)cc3F)ccnc2c1` [Compound 121, N-[3-Fluoro-4-[(7-methoxy-1,5-naphthyridin-4-yl)oxy]phenyl]-5-(4-fluorophenyl)-6-methyl-4-oxo-1-propan-2-ylpyridine-3-carboxamide]: the IC50 in assay [1] (setting [5]) is > 300 nM; in assay [2] (setting [6]) it was < 100 nM; in assay [3] (setting [7]), < 100 nM; in assay [4] it was < 100 nM.
`COc1cnc2c(Oc3ccc(NC(=O)c4cncc(-c5ccc(F)cc5)c4O)cc3)ccnc2c1` [Compound 146, 5-(4-Fluorophenyl)-4-hydroxy-N-[4-[(7-methoxy-1,5-naphthyridin-4-yl)oxy]phenyl]pyridine-3-carboxamide]: the half-maximal inhibitory concentration (IC50) in assay [1] (setting [5]), in assay [2] (setting [6]), in assay [3] (setting [7]) and in assay [4] was < 100 nM throughout.
Take `Cc1nc2c(Oc3ccc(NC(=O)c4cnc(C)c(-c5ccc(F)cc5)c4O)cc3F)ccnc2cc1-c1cnn(C(F)F)c1` [Compound 615, N-[4-[[7-[1-(Difluoromethyl)pyrazol-4-yl]-6-methyl-1,5-naphthyridin-4-yl]oxy]-3-fluorophenyl]-5-(4-fluorophenyl)-4-hydroxy-6-methylpyridine-3-carboxamide hydrochloride]: the half-maximal inhibitory concentration (IC50) in assay [1] (protocol of Example B-2), in assay [2] (protocol of Example C-2), in assay [3] (protocol of Example D-2) and in assay [4] was < 100 nM throughout.
In the case of `COc1cc2ncnc(Oc3ccc(NC(=O)c4cn(C(C)C)cc(-c5ccc(F)cc5)c4=O)cc3F)c2nc1OC` [Compound 636, N-[4-(6,7-dimethoxypyrido[3,2-d]pyrimidin-4-yl)oxy-3-fluorophenyl]-5-(4-fluorophenyl)-4-oxo-1-propan-2-ylpyridine-3-carboxamide], the half-maximal inhibitory concentration (IC50) in assay [1] (protocol of Example B-2), in assay [2] (protocol of Example C-2), in assay [3] (protocol of Example D-2) and in assay [4] was < 100 nM each time.
Consider `COc1cc2nccc(Oc3ccc(NC(=O)c4cn(C(C)C)c(C)c(-c5ccc(F)cc5)c4=O)cc3F)c2nc1N` [Compound 579, N-[4-[(6-Amino-7-methoxy-1,5-naphthyridin-4-yl)oxy]-3-fluorophenyl]-5-(4-fluorophenyl)-6-methyl-4-oxo-1-propan-2-ylpyridine-3-carboxamide], for which the IC50 in assay [1] (protocol of Example B-2) is > 300 nM; in assay [2] (protocol of Example C-2), < 100 nM; in assay [3] (protocol of Example D-2) it was < 100 nM; in assay [4] it was < 100 nM.
Regarding `COCCOc1nc2c(Oc3ccc(NC(=O)c4cnc(C)c(-c5ccc(F)cc5C)c4O)cc3F)ccnc2cc1OC` [Compound 144, N-[3-Fluoro-4-[[7-methoxy-6-(2-methoxyethoxy)-1,5-naphthyridin-4-yl]oxy]phenyl]-5-(4-fluoro-2-methylphenyl)-4-hydroxy-6-methylpyridine-3-carboxamide], the half-maximal inhibitory concentration (IC50) in assay [1] (setting [5]), in assay [2] (setting [6]), in assay [3] (setting [7]) and in assay [4] was < 100 nM throughout.
Regarding `COc1cnc2c(Oc3ccc(NC(=O)c4cn(C(C)C)cc(-c5ccc(F)cc5)c4=O)cc3F)ccnc2c1` [Compound 123, N-[3-Fluoro-4-[(7-methoxy-1,5-naphthyridin-4-yl)oxy]phenyl]-5-(4-fluorophenyl)-4-oxo-1-propan-2-ylpyridine-3-carboxamide], the half-inhibitory concentration (IC50) was > 300 nM in assay [1] (setting [5]), < 100 nM in assay [2] (setting [6]), < 100 nM in assay [3] (setting [7]) and < 100 nM in assay [4].
